In US12473296B2, “Perk inhibiting compounds” (HiberCell, Inc., priority 2019, dated 2025) one finds IC50 data, which are given here for 31 molecules.

For test [1], the target named is EIF2AK3 (PERK) catalytic domain (amino acids 536-1116) (Homo sapiens (Human), UniProt Q9NZJ5). In words: PERK in vitro activity assay (isolated), TR-FRET kinase assay. To be noted: isolated PERK enzyme, 1.5 μM ATP, GFP-eIF2a substrate; read-out: Biochemical IC50. The procedure, abridged: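 Human PERK catalytic domain (aa 536-1116) with 100-200 nM GFP-eIF2a in 50 mM HEPES pH 7.5, 10 mM MgCl2, 1.0 mM EGTA, 0.01% Brij-35; enzyme-started reaction run 45 min at room temperature. Stopped with 10 mM EDTA, 2 nM Tb-anti-phospho-eIF2a added for 90 min; IC50 from TR-FRET ratio by 4-parameter logistic fit.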
(In general: Time-resolved FRET reads energy transfer from a long-lived donor to a nearby acceptor.)

For the next test, the target named is PERK (Homo sapiens (Human), UniProt Q9NZJ5). In words: PERK cellular assay (TR-FRET, HEK293-EGFP-eIF2α cells, tunicamycin-induced ER stress). The format is cell-based. To be noted: tunicamycin 2 hours, read-out: Cellular IC50 (μM) (EIF2a). In short, it runs like this:
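Cells pre-incubated with inhibitor 30 min at 37 °C, then ER stress induced with […] tunicamycin for 2 h. TR-FRET read on lysates; ratio normalized to DMSO control as percent inhibition over a 10-point, 3-fold dilution series; IC50 from 4-parameter logistic fit.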

Usually IC50 stands for the midpoint of a concentration-inhibition curve.

Sequence of PERK (Q9NZJ5 30-1116): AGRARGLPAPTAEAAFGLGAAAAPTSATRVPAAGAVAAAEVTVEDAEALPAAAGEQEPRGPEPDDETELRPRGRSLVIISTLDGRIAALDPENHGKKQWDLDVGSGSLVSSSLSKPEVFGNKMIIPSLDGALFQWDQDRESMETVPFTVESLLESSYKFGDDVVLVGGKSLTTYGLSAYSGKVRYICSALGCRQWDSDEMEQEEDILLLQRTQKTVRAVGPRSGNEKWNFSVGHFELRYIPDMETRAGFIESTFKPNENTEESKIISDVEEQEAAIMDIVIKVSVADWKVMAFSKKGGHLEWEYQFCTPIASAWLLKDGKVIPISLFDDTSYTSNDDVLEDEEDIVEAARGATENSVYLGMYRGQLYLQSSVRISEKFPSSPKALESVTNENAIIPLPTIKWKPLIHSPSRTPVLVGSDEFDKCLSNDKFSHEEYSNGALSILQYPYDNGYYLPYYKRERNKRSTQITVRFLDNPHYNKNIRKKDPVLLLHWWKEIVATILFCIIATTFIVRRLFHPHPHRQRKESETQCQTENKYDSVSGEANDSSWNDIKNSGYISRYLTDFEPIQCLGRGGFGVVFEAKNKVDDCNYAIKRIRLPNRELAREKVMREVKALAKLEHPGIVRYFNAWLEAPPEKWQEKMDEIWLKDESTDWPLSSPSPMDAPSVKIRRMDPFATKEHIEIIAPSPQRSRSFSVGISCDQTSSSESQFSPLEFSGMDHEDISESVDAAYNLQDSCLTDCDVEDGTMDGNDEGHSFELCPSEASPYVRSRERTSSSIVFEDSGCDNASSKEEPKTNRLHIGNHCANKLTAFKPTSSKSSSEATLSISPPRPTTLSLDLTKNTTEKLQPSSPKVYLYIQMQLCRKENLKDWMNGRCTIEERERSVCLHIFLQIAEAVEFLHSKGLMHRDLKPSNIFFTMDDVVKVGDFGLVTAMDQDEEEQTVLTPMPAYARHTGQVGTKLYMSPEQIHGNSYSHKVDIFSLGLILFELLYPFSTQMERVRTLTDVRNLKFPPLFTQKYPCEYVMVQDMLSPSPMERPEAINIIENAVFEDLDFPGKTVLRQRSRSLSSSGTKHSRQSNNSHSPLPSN
Sequence of EIF2AK3 (PERK) catalytic domain (amino acids 536-1116) (Q9NZJ5 536-1116): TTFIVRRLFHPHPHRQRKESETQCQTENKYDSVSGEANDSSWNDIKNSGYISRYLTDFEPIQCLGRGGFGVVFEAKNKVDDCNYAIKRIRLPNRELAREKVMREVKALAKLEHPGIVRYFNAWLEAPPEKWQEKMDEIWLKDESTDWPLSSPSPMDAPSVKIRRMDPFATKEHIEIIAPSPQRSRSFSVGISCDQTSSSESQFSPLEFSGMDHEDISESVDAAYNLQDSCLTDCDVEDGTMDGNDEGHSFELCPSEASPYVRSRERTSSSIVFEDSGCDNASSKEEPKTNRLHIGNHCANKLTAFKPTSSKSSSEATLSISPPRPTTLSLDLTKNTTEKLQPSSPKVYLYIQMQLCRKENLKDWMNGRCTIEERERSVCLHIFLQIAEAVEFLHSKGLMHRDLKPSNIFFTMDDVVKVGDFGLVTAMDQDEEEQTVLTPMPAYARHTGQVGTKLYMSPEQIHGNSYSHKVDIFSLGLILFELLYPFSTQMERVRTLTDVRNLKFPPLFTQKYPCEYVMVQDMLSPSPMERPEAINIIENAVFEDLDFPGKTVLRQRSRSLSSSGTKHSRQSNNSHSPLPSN

On to `Cc1cccc(CC(=O)Nc2ccc(-c3cnc(N)c(C(=O)NC(C)C)c3)c(C)c2)n1` [Example 185, 2-amino-N-isopropyl-5-(2-methyl-4-(2-(6-methylpyridin-2-yl)acetamido)phenyl)nicotinamide], for which the IC50 in test [1] was 1 to 25 nM; at PERK, 0.251 to 0.5 µM.

With `Cc1cc(NC(=O)Cc2cc(F)cc(F)c2)ccc1-c1cnc(N)c(C(=O)NC(C)C)c1` [Example 186, 2-amino-5-(4-(2-(3,5-difluorophenyl)acetamido)-2-methylphenyl)-N-isopropylnicotinamide], the IC50 was in the range of 51 to 100 nM in test [1] and 0.101 to 0.25 µM at PERK.

In the case of `Cc1cc(NC(=O)Cc2ccccc2)ccc1-c1cnc(N)c(C(=O)NC(C)C)c1` [Example 187, 2-amino-N-isopropyl-5-(2-methyl-4-(2-phenylacetamido)phenyl)nicotinamide], the IC50 in test [1] fell in the range of 51 to 100 nM; on PERK, 0.501 to 1 µM.

Regarding `Cc1cc(NC(=O)CCc2ccccc2)ccc1-c1cnc(N)c(C(=O)NC(C)C)c1` [Example 188, 2-amino-N-isopropyl-5-(2-methyl-4-(3-phenylpropanamido)phenyl) nicotinamide], the IC50 fell in the range of 251 to 500 nM in test [1] and 2 to 3 µM at PERK.

Take `Cc1cc(NC(=O)Cc2ccccc2F)ccc1-c1cnc(N)c(C(=O)NC(C)C)c1` [Example 189, 2-amino-5-(4-(2-(2-fluorophenyl)acetamido)-2-methylphenyl)-N-isopropylnicotinamide]: the IC50 fell in the range of 101 to 250 nM in test [1] and 0.501 to 1 µM at PERK.

`Cc1cc(NC(=O)Cc2cccc(F)c2)ccc1-c1cnc(N)c(C(=O)NC(C)C)c1` [Example 190, 2-amino-5-(4-(2-(3-fluorophenyl)acetamido)-2-methylphenyl)-N-isopropylnicotinamide]: the IC50 lay in the range of 51 to 100 nM in test [1] and 0.501 to 1 µM at PERK.

`Cc1cc(NC(=O)Cc2ccc(F)cc2)ccc1-c1cnc(N)c(C(=O)NC(C)C)c1` [Example 191, 2-amino-5-(4-(2-(4-fluorophenyl)acetamido)-2-methylphenyl)-N-isopropylnicotinamide]: the IC50 was 51 to 100 nM in test [1] and 1 to 2 µM on PERK.

For `COc1ccccc1CC(=O)Nc1ccc(-c2cnc(N)c(C(=O)NC(C)C)c2)c(C)c1` [Example 192, 2-amino-N-isopropyl-5-(4-(2-(2-methoxyphenyl)acetamido)-2-methylphenyl) nicotinamide], the IC50 fell in the range of 101 to 250 nM in test [1] and 2 to 3 µM at PERK.

With `COc1cccc(CC(=O)Nc2ccc(-c3cnc(N)c(C(=O)NC(C)C)c3)c(C)c2)c1` [Example 193, 2-amino-N-isopropyl-5-(4-(2-(3-methoxyphenyl)acetamido)-2-methylphenyl) nicotinamide], the figures for the IC50 (in test [1]; on PERK) were 51 to 100 nM and 0.501 to 1 µM, respectively.

For `COc1ccc(CC(=O)Nc2ccc(-c3cnc(N)c(C(=O)NC(C)C)c3)c(C)c2)cc1` [Example 194, 2-amino-N-isopropyl-5-(4-(2-(4-methoxyphenyl)acetamido)-2-methylphenyl) nicotinamide], the IC50 lay in the range of 501 to 1000 nM in test [1] and 2 to 3 µM on PERK.

With `Cc1ccc(CC(=O)Nc2ccc(-c3cnc(N)c(C(=O)NC(C)C)c3)c(C)c2)cc1` [Example 197, 2-amino-N-isopropyl-5-(2-methyl-4-(2-(p-tolyl)acetamido)phenyl)nicotinamide], the IC50 was 101 to 250 nM in test [1] and 1 to 2 µM on PERK.

Consider `Cc1cc(NC(=O)Cc2ccccc2Cl)ccc1-c1cnc(N)c(C(=O)NC(C)C)c1` [Example 198, 2-amino-5-(4-(2-(2-chlorophenyl)acetamido)-2-methylphenyl)-N-isopropylnicotinamide], for which the IC50 in test [1] is 26 to 50 nM; on PERK, 0.501 to 1 µM.

As to `Cc1cc(NC(=O)Cc2cccc(Cl)c2)ccc1-c1cnc(N)c(C(=O)NC(C)C)c1` [Example 199, 2-amino-5-(4-(2-(3-chlorophenyl)acetamido)-2-methylphenyl)-N-isopropylnicotinamide], the IC50 in test [1] fell in the range of 26 to 50 nM; at PERK, 0.101 to 0.25 µM.

As to `Cc1cc(NC(=O)Cc2ccc(Cl)cc2)ccc1-c1cnc(N)c(C(=O)NC(C)C)c1` [Example 200, 2-amino-5-(4-(2-(4-chlorophenyl)acetamido)-2-methylphenyl)-N-isopropylnicotinamide], the IC50 was in the range of 501 to 1000 nM in test [1] and 0.501 to 1 µM at PERK.

For `Cc1cc(NC(=O)Cc2ccccc2C(F)(F)F)ccc1-c1cnc(N)c(C(=O)NC(C)C)c1` [Example 201, 2-amino-N-isopropyl-5-(2-methyl-4-(2-(2-(trifluoromethyl)phenyl)acetamido)phenyl)nicotinamide], the results for the IC50 (in test [1]; at PERK) were 51 to 100 nM and 0.501 to 1 µM, respectively.

As to `Cc1cc(NC(=O)Cc2cccc(C(F)(F)F)c2)ccc1-c1cnc(N)c(C(=O)NC(C)C)c1` [Example 202, 2-amino-N-isopropyl-5-(2-methyl-4-(2-(3-(trifluoromethyl)phenyl)acetamido)phenyl)nicotinamide], the IC50 in test [1] was in the range of 51 to 100 nM; on PERK it was 0.101 to 0.25 µM.

As for `Cc1cc(NC(=O)Cc2ccc(C(F)(F)F)cc2)ccc1-c1cnc(N)c(C(=O)NC(C)C)c1` [Example 203, 2-amino-N-isopropyl-5-(2-methyl-4-(2-(4-(trifluoromethyl)phenyl)acetamido)phenyl) nicotinamide], the figures for the IC50 (in test [1]; at PERK) were 2000 to 3000 nM and 1 to 2 µM, respectively.

Turning to `CCc1cccc(CC(=O)Nc2ccc(-c3cnc(N)c(C(=O)NC(C)C)c3)c(C)c2)c1` [Example 205, 2-amino-5-(4-(2-(3-ethylphenyl)acetamido)-2-methylphenyl)-N-isopropylnicotinamide], the values for the IC50 (in test [1]; on PERK) were 1 to 25 nM and 0.101 to 0.25 µM, respectively.

As to `CCc1ccc(CC(=O)Nc2ccc(-c3cnc(N)c(C(=O)NC(C)C)c3)c(C)c2)cc1` [Example 206, 2-amino-5-(4-(2-(4-ethylphenyl)acetamido)-2-methylphenyl)-N-isopropylnicotinamide], the IC50 was 251 to 500 nM in test [1] and 2 to 3 µM on PERK.

Regarding `Cc1cc(NC(=O)Cc2cccc3ccccc23)ccc1-c1cnc(N)c(C(=O)NC(C)C)c1` [Example 207, 2-amino-N-isopropyl-5-(2-methyl-4-(2-(naphthalen-1-yl)acetamido)phenyl)nicotinamide], the values for the IC50 (in test [1]; at PERK) were 1 to 25 nM and 0.251 to 0.5 µM, respectively.

`Cc1cc(NC(=O)Cc2ccc3ccccc3c2)ccc1-c1cnc(N)c(C(=O)NC(C)C)c1` [Example 208, 2-amino-N-isopropyl-5-(2-methyl-4-(2-(naphthalen-2-yl)acetamido)phenyl)nicotinamide]: the IC50 lay in the range of 26 to 50 nM in test [1] and 0.101 to 0.25 µM on PERK.

As to `Cc1cc(NC(=O)Cc2ccc3ncccc3c2)ccc1-c1cnc(N)c(C(=O)NC(C)C)c1` [Example 209, 2-amino-N-isopropyl-5-(2-methyl-4-(2-(quinolin-6-yl)acetamido)phenyl)nicotinamide], the IC50 in test [1] was in the range of 101 to 250 nM; at PERK, 1 to 2 µM.

For `Cc1cc(NC(=O)Cc2cncc3ccccc23)ccc1-c1cnc(N)c(C(=O)NC(C)C)c1` [Example 210, 2-amino-N-isopropyl-5-(4-(2-(isoquinolin-4-yl)acetamido)-2-methylphenyl) nicotinamide], the IC50 in test [1] lay in the range of 51 to 100 nM; on PERK it was 1 to 2 µM.

Regarding `Cc1cc(NC(=O)Cc2cccc3cnccc23)ccc1-c1cnc(N)c(C(=O)NC(C)C)c1` [Example 211, 2-amino-N-isopropyl-5-(4-(2-(isoquinolin-5-yl)acetamido)-2-methylphenyl) nicotinamide], the IC50 was 251 to 500 nM in test [1] and 2 to 3 µM on PERK.

Turning to `Cc1cc(NC(=O)Cc2cccc3ncccc23)ccc1-c1cnc(N)c(C(=O)NC(C)C)c1` [Example 212, 2-amino-N-isopropyl-5-(2-methyl-4-(2-(quinolin-5-yl)acetamido)phenyl)nicotinamide], the figures for the IC50 (in test [1]; on PERK) were 1000 to 2000 nM and above 5 µM, respectively.

On to `Cc1cc(NC(=O)CC2CC2)ccc1-c1cnc(N)c(C(=O)NC(C)C)c1` [Example 213, 2-amino-5-(4-(2-cyclopropyl-acetamido)-2-methylphenyl)-N-isopropylnicotinamide], for which the results for the IC50 (in test [1]; on PERK) were 1000 to 2000 nM and above 5 µM, respectively.

Regarding `Cc1cc(NC(=O)CC2CCC2)ccc1-c1cnc(N)c(C(=O)NC(C)C)c1` [Example 214, 2-amino-5-(4-(2-cyclobutylacetamido)-2-methylphenyl)-N-isopropylnicotinamide], the IC50 in test [1] is 251 to 500 nM; on PERK, above 5 µM.

In the case of `Cc1cc(NC(=O)CC2CCCC2)ccc1-c1cnc(N)c(C(=O)NC(C)C)c1` [Example 215, 2-amino-5-(4-(2-cyclopentylacetamido)-2-methylphenyl)-N-isopropylnicotinamide], the IC50 in test [1] is above 5000 nM; on PERK it was above 5 µM.

As for `Cc1cc(NC(=O)CC2CCCCC2)ccc1-c1cnc(N)c(C(=O)NC(C)C)c1` [Example 216, 2-amino-5-(4-(2-cyclohexylacetamido)-2-methylphenyl)-N-isopropylnicotinamide], the concentration for half-maximal inhibition (IC50) was 1000 to 2000 nM in test [1] and above 5 µM at PERK.

As to `Cc1cc(NC(=O)c2ccccc2)ccc1-c1cnc(N)c(C(=O)NC(C)C)c1` [Example 217, 2-amino-5-(4-benzamido-2-methylphenyl)-N-isopropylnicotinamide], the IC50 in test [1] was above 5000 nM; at PERK, 0.501 to 1 µM.

As for `Cc1cc(NC(=O)N(C)c2ccccc2)ccc1-c1cnc(N)c(C(=O)NC(C)C)c1` [Example 218, 2-amino-N-isopropyl-5-(2-methyl-4-(3-methyl-3-phenylureido)phenyl)nicotinamide], the IC50 is 1000 to 2000 nM in test [1] and above 5 µM on PERK.
